Molecules are shown by their SMILES. Values joined by “and” are separate entries in the source; they are usually repeats but may differ in a detail not shown here. Equal entries are not always repeated. Structures can show the parent of a compound that is named as a salt. Where two headings read alike, the source gives them in different places. Some results are limits rather than exact numbers.

These results are taken from patent US6479487B1, “6, 9-disubstituted 2-[trans-(4-aminocyclohexyl)amino] purines” (Aventis Pharmaceuticals Inc., priority 1998, dated 2002).

The subject of one assay is cortical neurons. As to conditions: cited from earlier work; for IC50: Park et al. 1997, read-out: IC50, protection against camptothecin-induced cortical neuronal death.
Assay [1] deals with PC12 cells, or rat sympathetic neurons. As to conditions: cited from earlier work; for concentration giving maximal protection from death: camptothecin-treated, minimum concentrations that fully inhibit DNA synthesis by proliferating PC12 cells; for cell death: day 6, in the presence or absence of camptothecin.
In the next assay the test system is HT-29. Kind of assay: In vitro tumor cell proliferation, HT-29. The format is cell-based, human. Conditions: many values given with an undefined *, read-out: In vitro Tumor Cell Proliferation (IC50, μM) Colon HT-29. The method in brief: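 Growth was quantified either with CyQUANT, plates frozen at −80° C after 3 days of drug, or by sulforhodamine B staining of TCA-fixed cells after 3 days of drug plus 4 days with fresh drug. Trypan blue-excluding HT-29 cells were plated overnight at 37° C before dosing.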

The next assay deals with HCT-15. Kind of assay: In vitro tumor cell proliferation, HCT-15. Format: cell-based, human. As to conditions: read-out: In vitro Tumor Cell Proliferation (IC50, μM) Colon HCT-15. The method, then: (§1) The proliferation of tumor cells was measured using a sulforhodamine B assay as described in Skehan, P., et al., J. Natl. Cancer Inst. […] Tumor cells were harvested with trypsin-EDTA, cells that excluded trypan blue were counted, added to 96-well plates and incubated overnight at 37° C. Drug was added to the wells following dilution in culture medium. Three days later, the medium was removed and replenished with medium containing fresh drug and incubated an additional 4 days. The cells were then fixed with 0.1 ml 10% trichloroacetic acid for 60 min at 4° C. The plates were rinsed five times with tap water, air-dried and stained for 30 min with 0.4% sulforhodamine B in 1% acetic acid and air-dried.
(§2) Alternatively, the CyQUANT cell proliferation assay was used to quantitate cell proliferation.
(§3) Alternatively, the CyQUANT cell proliferation assay was used to quantify tumor cell proliferation. Tumor cells were harvested with trypsin-EDTA, cells that excluded trypan blue were counted, added to 96-well plates and incubated overnight at 37° C. Drug was added to the wells following dilution in culture medium. Three days later the medium was removed and the plates frozen at −80° C. for at least 30 minutes.

In another assay the test system is DMS-114. Kind of assay: In vitro tumor cell proliferation, DMS-114. The format is cell-based, human. As to conditions: many values given with an undefined *, read-out: In vitro Tumor Cell Proliferation (IC50, μM) Lung DMS-114. The method in brief:
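Human small cell lung carcinoma DMS-114 cells plated overnight, then drug-treated for 3 days, medium and drug renewed, and incubated 4 more days. Growth read by sulforhodamine B staining after TCA fixation; alternatively by CyQUANT after 3 days' drug exposure and freezing at −80 °C.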

The subject of assay [2] is cAMP- and cGMP-dependent kinases, and protein kinase C. As to conditions: cited from earlier work.
The subject of assay [3] is neuronal PC12 cells and sympathetic neurons. Conditions: two model systems of neuronal survival; Park et al. 1996; cited from earlier work.
The next assay deals with PC-3. Briefly: In vitro tumor cell proliferation, PC-3. Format: cell-based, human. As to conditions: many values given with an undefined *, read-out: In vitro Tumor Cell Proliferation (IC50, μM) Prostate PC-3. An outline of the steps:
(§4)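 SRB read-out: cells seeded overnight, 37° C; drug 3 d, medium plus fresh drug replaced, +4 d; TCA fix 60 min 4° C, 0.4% SRB stain 30 min. Alt. CyQUANT: drug 3 d, plates frozen −80° C before read.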

For the next assay, the system named is MCF-7. Kind of assay: In vitro tumor cell proliferation, MCF-7. Conditions: sulforhodamine B or CyQUANT assay, read-out: In vitro Tumor Cell Proliferation (IC50, μM) Breast MCF-7. The format is cell-based, human. The protocol:
as §1, §2, §3
MCF7 is a human breast adenocarcinoma, hormone-dependent (HTB 22);

Assay [4] relates to CDK-cyclin protein kinases. As to conditions: Vesely et al. 1994; cited from earlier work.
Another assay deals with A549. Briefly: In vitro tumor cell proliferation, A549. The format is cell-based, human. As to conditions: many values given with an undefined *, read-out: In vitro Tumor Cell Proliferation (IC50, μM) Lung A549. The method in brief: as §4
A further assay has as its system DU145. Kind of assay: In vitro tumor cell proliferation, DU145. The format is cell-based, human. As to conditions: many values given with an undefined *, read-out: In vitro Tumor Cell Proliferation (IC50, μM) Prostate DU145. An outline of the steps:
as §4

The next assay deals with T1, cdk2/cyclin E (Homo sapiens, UniProt P24941).
T1 construct: made in house; host or cells: insect cells (baculovirus co-infection)
Briefly: Cyclin-Dependent Kinase 2 Assay (cdk2/cyclin E, GST-Rb substrate). The format is biochemical. Conditions: recombinant cdk2/cyclin E, 10 μM ATP, 30 min at 30° C., several values in a cell = separate determinations, read-out: CDK-2 Inhibition IC50. The protocol:
Substrate: GST-Rb as described above for cdk4/cyclin D1
Assay conditions for cdk2/cyclin E were identical to those for cdk4/cyclin D1 including the substrate. The concentration of recombinant cdk2/cyclin E in the assay was 0.1 μg per 100 μl assay. Incubation was for 30 min at 30° C.

For another assay, the system named is MDA-MB-231. Kind of assay: In vitro tumor cell proliferation, MDA-MB-231. The format is cell-based, human. As to conditions: sulforhodamine B or CyQUANT assay, many values given with an undefined *, read-out: In vitro Tumor Cell Proliferation (IC50, μM) Breast MDA-MB-231. The method in brief:
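Proliferation quantified by SRB staining of TCA-fixed cells after 3 days of drug plus 4 days with replenished drug, following overnight attachment at 37 °C.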

For another assay, the target named is T2, cdk4/cyclin D1 (Homo sapiens, UniProt P11802).
T2 construct: made in house; host or cells: Sf9 insect cells (Bac-to-Bac baculovirus, pFastBac)
T2 sequence (P11802 whole entry): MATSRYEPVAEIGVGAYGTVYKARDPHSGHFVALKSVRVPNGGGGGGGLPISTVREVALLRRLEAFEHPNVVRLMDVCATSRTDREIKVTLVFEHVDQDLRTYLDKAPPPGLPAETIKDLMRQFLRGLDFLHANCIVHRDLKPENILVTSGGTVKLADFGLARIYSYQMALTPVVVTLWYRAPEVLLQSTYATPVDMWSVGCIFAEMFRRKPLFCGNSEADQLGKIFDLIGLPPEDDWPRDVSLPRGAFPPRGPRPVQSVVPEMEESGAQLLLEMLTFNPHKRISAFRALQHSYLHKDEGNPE
T2 sequence (P24385 whole entry partner): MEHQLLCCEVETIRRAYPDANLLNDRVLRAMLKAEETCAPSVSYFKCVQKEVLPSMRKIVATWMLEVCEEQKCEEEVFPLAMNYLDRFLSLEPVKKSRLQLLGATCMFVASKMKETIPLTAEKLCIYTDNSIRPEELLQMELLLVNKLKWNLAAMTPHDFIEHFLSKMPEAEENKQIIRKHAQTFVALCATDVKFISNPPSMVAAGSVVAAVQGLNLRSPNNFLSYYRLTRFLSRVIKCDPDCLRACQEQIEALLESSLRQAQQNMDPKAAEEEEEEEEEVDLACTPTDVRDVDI
Kind of assay: Cyclin-dependent Kinase 4 Assay (cdk4/cyclin D1, GST-Rb substrate). The format is biochemical. As to conditions: cdk4/cyclin D1 insect cell lysate, 10 μM ATP, 30 min at 37° C., several values = separate determinations, read-out: CDK4 Inhibition IC50. The method in brief:
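IC50 against cdk4 measured by scintillation counting of bead-bound GST-Rb (0.5 μg) after filtration and four TNEN washes. Reaction was 30 min at 37 °C in HEPES pH 7.5 buffer with 10 mM MgCl2 and 1 mM EGTA. Enzyme source was 0.1 μg Sf9 lysate coinfected with cdk4 and cyclin D1.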

`Cn1cnc2nc(NCCO)nc(NCc3ccccc3)c21` [iso-olomoucine]: the “prevention of cell death of camptothecin-treated neuronal cells” value (in the assay with cortical neurons (cortical neurons); in assay [1] (PC12 cells / sympathetic neurons)) was “failed to prevent the cell death” each time.

Consider `Cn1cnc2c(NCc3ccccc3)nc(NCCO)nc21` [Olomoucine, 6-(benzylamino)-2-[(2-hydroxyethyl)amino]-9-methylpurine, reference compound], for which the IC50 was 58 µM in the assay on HT-29 (HT-29); 53 µM in the assay with HT-29 (Homo sapiens, HT-29, HT-29); 63 µM in the assay on HCT-15 (HCT-15); 62 µM in the assay on HCT-15 (Homo sapiens, HCT-15, HCT-15); 76 µM with DMS-114 (DMS-114); 50 µM in the assay on DMS-114 (Homo sapiens, DMS-114, DMS-114). Besides, the IC50 in the assay on cortical neurons was 100000 nM; with PC-3 (Homo sapiens, PC-3) it was 55 µM; in the assay with MCF-7 (Homo sapiens, MCF7, MCF-7), 35 µM; in assay [4] it was roughly 7000 nM; in the assay on A549 (Homo sapiens, A549), 69 µM; in the assay with DU145 (Homo sapiens, DU-145, DU145), greater than 100 µM. For the same compound, in assay [2], the “effect on other major protein kinases” value was “no effect”. Besides, the “effect on death of neuronal PC12 cells and sympathetic neurons” value in [3] is “suppress the death”. In addition, in assay [1], the “concentration giving maximal protection from death” value is 200 µM. Also, the cell death entry in assay [1] is “approximately 30%”.

Take `N[C@H]1CC[C@H](Nc2nc(NCc3ccc(C(F)(F)F)cc3)c3ncn(C4CCCC4)c3n2)CC1` [Example 1, 2-[Trans-(4-aminocyclohexyl)amino]-6-[(4-trifluorobenzyl)amino]-9-cyclopentylpurine dihydrochloride]: the IC50 with HT-29 (HT-29, dihydrochloride) was 1.6 µM; with HT-29 (Homo sapiens, HT-29, HT-29) it was 1.5 µM; in the assay on HCT-15 (HCT-15, dihydrochloride) it was 2.5 µM; with HCT-15 (Homo sapiens, HCT-15, HCT-15), 2.4 µM; with DMS-114 (DMS-114, dihydrochloride), 0.86 µM; in the assay with DMS-114 (Homo sapiens, DMS-114, DMS-114) it was 1.1 µM. Further, the IC50 on cdk2/cyclin E is 120 nM and 81 nM; in the assay with MDA-MB-231 (Homo sapiens, MDA-MB-231, MDA-MB-231) it was 1.4 µM; in the assay on MDA-MB-231 (MDA-MB-231, dihydrochloride) it was 1.5 µM; in the assay with PC-3 (Homo sapiens, PC-3, PC-3), 0.96 µM; in the assay on PC-3 (PC-3, dihydrochloride) it was 1 µM; in the assay with MCF-7 (Homo sapiens, MCF7, MCF-7), 1.2 µM. Moreover, the IC50 in the assay on MCF-7 (MCF-7, dihydrochloride) is 1.6 µM; at cdk4/cyclin D1 it was 2000 nM and 2700 nM and 1700 nM; with A549 (A549, dihydrochloride), 0.9 µM; in the assay with A549 (Homo sapiens, A549, A549) it was 0.97 µM; in the assay on DU145 (DU145, dihydrochloride), 1.5 µM; with DU145 (Homo sapiens, DU-145, DU145), 1.4 µM.

With `CN1CC[C@H](c2c(O)cc(O)c3c(=O)cc(-c4ccccc4Cl)oc23)[C@H](O)C1` [Flavopiridol], the “effect on death of neuronal PC12 cells and sympathetic neurons” value in assay [3] is “suppress the death”. Further, the IC50 in the assay on cortical neurons was 100 nM. Besides, in [1], the “concentration giving maximal protection from death” value was 1 µM and the cell death entry is given as “approximately 30%”.
